Measurements as given in ChEMBL document CHEMBL1124934, “Synthesis and structure-activity relationships of dynorphin A-(1-8) amide analogues” (J Med Chem, 1990).

Species on record: Mus musculus
Experiment: animal or person
Settings: iv

CN1CC[C@]23c4c5ccc(O)c4O[C@H]2[C@@H](O)C=C[C@H]3[C@H]1C5 [MORPHINE]
ED50: 1.85 mg/kg
